For test [1], the system named is nontypeable Haemophilus influenzae. How it is done:
Human alveolar macrophages were purified from individual BAL samples by centrifugation and seeded onto 6-well tissue culture plates. After incubation for 2 h, non-adherent cells were removed and the adherent cells were incubated with R, S-sulforaphane (5 μM; LKT Laboratories, Inc., St. Paul, Minn.) and or DMSO in RPMI 1640 culture medium with 10% FBS and 1% penicillin-streptomycin (Invitrogen, Carlsbad, Calif.). After 16-20 h, adherent cells were scraped, suspended in RPMI 1640 culture media and plated onto 96-well tissue culture plates for bacterial phagocytosis and clearance assays. […] For MARCO antibody-depletion, alveolar macrophages were incubated with human anti-MARCO antibody (1 μg/ml; (Hycult, Uden, The Netherlands) for 4 hours prior to bacterial challenge. […]
After treatment, macrophages (10^5 cells) were incubated with bacteria (PA or NTHI) for 4 h. […] The number of bacterial colonies was counted after 24 h.

Another test has as its system IL-8. The experiment in a line: Corticosteroid responsiveness: basal and LPS-induced IL-8 secretion by alveolar macrophages. It is filed as cell-based, human. How it is done: (§1) For inducing corticosteroid resistance, PMs were exposed to cigarette smoke condensate (CSC, 100 μg/ml; Murty Pharmaceuticals, Lexington, Ky.) for 16 h. Exposure to S-nitrosoglutathione (GSNO, 10 μM) was limited to 4 h. […] For assessing corticosteroid responsiveness, macrophages were incubated with dexamethasone (1 μM, Sigma) for 1 h followed by LPS (100 ng/ml, Sigma) for additional 4 h.
For human IL-8 and mouse IL-6 and MCP-1 proteins, Quantikine ELISA kits from R&D systems (Minneapolis, Minn.) were used according to the manufacturer's instructions.

The test system of the next test is glucocorticoid receptor. Description: Acetylated glucocorticoid receptor levels in alveolar macrophages. It is filed as cell-based, human. As to conditions: compared to vehicle control. The procedure: (§2) All immunoblots were performed by using protocols as described previously (Barnes, P. J., N Engl J Med 343, 269-280 (2000)). Rabbit anti-HDAC2 antibody from Santa Cruz Biotechnology (Santa Cruz, Calif.) was used at 1:500 dilutions. Rabbit anti-5-nitroso-cysteine antibody from Alpha diagnostics was used at 1:500 dilutions. Rabbit anti-nitro-tyrosine antibody from Cell Signaling Technology, was used at 1:250 dilution. Rabbit anti-ubiquitin antibody from Santa Cruz Biotechnology (Santa Cruz, Calif.) was used at 1:1000 dilutions. Rabbit anti-GR antibody from Santa Cruz Biotechnology (Santa Cruz, Calif.) was used at a dilution of 1:1000. Rabbit anti-MMP9 antibody from Sigma Aldrich was used at 1:500 dilutions. Rabbit anti-acetyl-lysine antibody from Abcam was used at 1:750 dilutions. Rabbit anti-lamin-B1 from Santa Cruz Biotechnology (Santa Cruz, Calif.) was used at 1:1000 dilutions as a loading control. The Image J program was used for densitometry analyses.

The next test deals with HDAC2. It is filed as cell-based, human. As to conditions: COPD alveolar macrophages. The procedure:
as §1, §2
Total RNA was extracted from the cells by lysis and specific binding to a silica membrance (Qiagen RNeasy kit, Qiagen, Valencia, Calif.), and qRT-PCR was performed by using primers and probe sets for human IL-8, NQO1, GCLM, and iNOS (Assay-on-Demand, Applied Biosystems, Foster City, Calif.). A real-time fluorescent PCR system (ABI 7000 Taqman system, Applied Biosystems) was used to perform these assays. β-actin was used as the normalization control.

For test [2], the system named is Pseudomonas aeruginosa. The experiment in a line: Phagocytosis assay, FITC-labeled PA, alveolar macrophages. It is filed as cell-based, human. How it is done: (§3) Human alveolar macrophages were purified from individual BAL samples by centrifugation and seeded onto 6-well tissue culture plates. After incubation for 2 h, non-adherent cells were removed and the adherent cells were incubated with R, S-sulforaphane (5 μM; LKT Laboratories, Inc., St. Paul, Minn.) and or DMSO in RPMI 1640 culture medium with 10% FBS and 1% penicillin-streptomycin (Invitrogen, Carlsbad, Calif.). After 16-20 h, adherent cells were scraped, suspended in RPMI 1640 culture media and plated onto 96-well tissue culture plates for bacterial phagocytosis and clearance assays. […] For MARCO antibody-depletion, alveolar macrophages were incubated with human anti-MARCO antibody (1 μg/ml; (Hycult, Uden, The Netherlands) for 4 hours prior to bacterial challenge.
(§4) Sputum isolates of nontypeable H. influenzae and P. aeruginosa obtained from patients with COPD at the Department of Veterans Affairs, Western New York Healthcare System were used (S. Sethi, N. Evans, B. J. Grant, T. F. Murphy, N Engl J Med 347, 465 (Aug. 15, 2002); C. S. Berenson, M. A. Garlipp, L. J. Grove, J. Maloney, S. Sethi, J Infect Dis 194, 1375 (Nov. 15, 2006); T. F. Murphy et al., Am J Respir Crit Care Med 177, 853 (Apr. 15, 2008); T. F. Murphy, A. L. Brauer, A. T. Schiffmacher, S. Sethi, Am J Respir Crit Care Med 170, 266 (Aug. 1, 2004)). For bacterial growth, H. influenzae was cultured on chocolate agar or grown in brain heart infusion broth supplemented with 20 μg/mlNAD and 10 μg/ml hemin at 35° C. in 5% CO2. P. aeruginosa was cultured on LB agar plates or in LB broth at 37° C. For FITC-labeling of bacteria, heat inactivated PA and NTHI (10^9 CFU/ml) were resuspended in 1 ml of labeling buffer (0.1 M NaHCO3, pH 9.2) and incubated with fluorescein isothiocyanate (FITC) (Sigma) under constant stiffing in the dark at room temperature for 1 h. Finally, bacteria were washed three times with PBS and dialyzed overnight against PBS. FITC-labeled bacteria were resuspended with PBS at a concentration of 10^9/ml.
Bacterial phagocytosis was quantified using a flow cytometry analysis.

Test [3] has as its system Pseudomonas aeruginosa. Description: Clearance of bacteria in vitro by alveolar macrophages (PA). It is filed as cell-based. The procedure: as §3, §4
After treatment, macrophages (10^5 cells) were incubated with bacteria (PA or NTHI) for 4 h. Subsequently, 100 μL of cell free culture medium was aseptically plated and cultured on tryptose blood and or chocolate agar plates at 37° C. The number of bacterial colonies was counted after 24 h.

The subject of another test is MARCO. As to conditions: alveolar macrophages from mice exposed to CS. How it is done:
C57BL/6J mice were housed under controlled conditions for temperature and humidity, using a 12-hour light/dark cycle. At 8 weeks of age, mice were exposed to CS for (2.5 h/day for 5 days/week) for 1 week or 6 months using a machine that produces cigarette smoke (TE-10, Teague Enterprises) and reference cigarettes (2R4F) with a total suspended particle concentration of 250 mg/m^3 as previously described (T. E. Sussan et al., Proc Natl Acad Sci USA, (Dec. 22, 2008)). Following exposure to CS, mice were inoculated with PA or NTHI at a dose of 10^3 CFU in 50 μl of PBS intranasally. For sulforaphane administration (0.5 mg/mouse of R, S-sulforaphane in PBS), a nebulizer (Aerogen, Inc., Galway, Ireland) designed specifically for small animals was used.

Where [4] appears, read: COPD alveolar macrophages, compared to vehicle, 4 h with bacteria.
Where [5] appears, read: cell-free medium with sulforaphane alone.

Structures are written as SMILES. Entries after “also recorded” stand apart in the source; their conditions may differ.

For the molecule `C[S+]([O-])CCCCN=C=S` (stereo not drawn) [sulforaphane], in test [1] (setting [4]), the “clearance of nontypeable Haemophilus influenzae (decrease in CFU in culture medium)” value is listed as 40-95%. For the same molecule, in test [1] (setting [5]), the “bactericidal activity towards nontypeable Haemophilus influenzae” value is on record as “no bactericidal activity”. Besides, in the test on IL-8 (in the presence of buthionine sulfoximine (BSO)), the “DEX sensitivity (histone acetylation on IL-8 promoter, IL-8 expression)” value is recorded as “failed to improve DEX sensitivity”. Further, the IL-8 levels entry in the test on IL-8 (sulforaphane alone, basally and after LPS treatment) is recorded as “significantly reduced IL-8 levels”. Moreover, the “DEX's inhibitory effect on basal and LPS-induced IL-8 secretion (fold reduction)” value with IL-8 (sulforaphane treatment then DEX, P<0.01, N=25 patients) is on record as 5 fold. The “levels of acetylated-glucocorticoid receptor” value with glucocorticoid receptor is “significant decrease in the levels of acetylated-glucocorticoid receptor”. In the test on HDAC2, the “HDAC2 mRNA levels” value is “without altering the levels of HDAC2 mRNA; also recorded: no effect on HDAC2 mRNA expression” and the HDAC2 protein levels entry is “up-regulated HDAC2 protein levels”. The “phagocytosis of FITC-labeled Pseudomonas aeruginosa” value in the test on Pseudomonas aeruginosa [2] (COPD alveolar macrophages, compared to vehicle) is recorded as “significantly enhanced phagocytosis”. Also, in the test on Pseudomonas aeruginosa [2] (Nrf2-siRNA transfected macrophages), the bacterial phagocytosis entry is “failed to do so”. The bacterial phagocytosis entry with Pseudomonas aeruginosa [2] (alveolar macrophages transfected with control ssRNA) is “enhanced bacterial phagocytosis”. Further, in the test with Pseudomonas aeruginosa [3] (setting [4]), the “clearance of Pseudomonas aeruginosa (decrease in CFU in culture medium)” value is reported as 40-95%. Moreover, the bacterial clearance result in the test on Pseudomonas aeruginosa [3] (alveolar macrophages from non-COPD subjects) is recorded as “significantly enhanced bacterial clearance”. For the same molecule, the “bactericidal activity towards Pseudomonas aeruginosa” value in the test with Pseudomonas aeruginosa [3] (setting [5]) is “no bactericidal activity”. In addition, in the test on MARCO, the MARCO expression entry was “increased MARCO expression”.

Source of the values: US20130039928A1, “COMPOSITIONS AND METHODS FOR REVERSING CORTICOSTEROID RESISTANCE OR TREATING RESPIRATORY INFECTIONS” (priority 2010, published 2013).
